Biological target: T1, TAK1 (TAK1-TAB1 fusion protein) (Homo sapiens, UniProt O43318)
T1 sequence (O43318 15-303): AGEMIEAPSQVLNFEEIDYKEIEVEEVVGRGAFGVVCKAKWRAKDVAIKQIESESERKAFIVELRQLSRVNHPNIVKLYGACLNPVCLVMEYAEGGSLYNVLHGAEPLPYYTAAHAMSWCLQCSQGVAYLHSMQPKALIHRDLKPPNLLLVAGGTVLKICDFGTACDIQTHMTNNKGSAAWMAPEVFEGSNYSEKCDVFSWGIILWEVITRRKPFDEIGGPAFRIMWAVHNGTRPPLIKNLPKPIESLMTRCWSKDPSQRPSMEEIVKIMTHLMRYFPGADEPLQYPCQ
T1 sequence (Q15750 468-504 partner): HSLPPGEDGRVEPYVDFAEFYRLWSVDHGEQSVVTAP
Test: SPR
Format: binding

`COc1cc(Nc2ncc(F)c(Nc3ccc4c(n3)N(COP(=O)(O)O)C(=O)C(C)(C)O4)n2)cc(OC)c1OC` [R788] was tested, and the Kd was 12.1 µM.
